pIC50: −log10 of the molar value.
How the values were obtained:
Dipeptidyl peptidase 8 = Dipeptidyl peptidase 8 (Homo sapiens, UniProt Q6V1X1); test: Inhibition of human DPP8 expressed in baculovirus by continuous fluorescent assay
Dipeptidyl peptidase 9 = Dipeptidyl peptidase 9 (Homo sapiens, UniProt Q86TI2); test: Inhibition of human DPP9 expressed in baculovirus by continuous fluorescent assay
[1] = Half life in rat at 1 mg/kg, iv or 2 mg/kg, po; type: ADME, organism-based; conditions: in vivo
Cytochrome P450 2D6 = Cytochrome P450 2D6 (Homo sapiens, UniProt P10635); test: Inhibition of CYP2D6; type: ADME
Cytochrome P450 2D6, sequence (P10635 whole entry): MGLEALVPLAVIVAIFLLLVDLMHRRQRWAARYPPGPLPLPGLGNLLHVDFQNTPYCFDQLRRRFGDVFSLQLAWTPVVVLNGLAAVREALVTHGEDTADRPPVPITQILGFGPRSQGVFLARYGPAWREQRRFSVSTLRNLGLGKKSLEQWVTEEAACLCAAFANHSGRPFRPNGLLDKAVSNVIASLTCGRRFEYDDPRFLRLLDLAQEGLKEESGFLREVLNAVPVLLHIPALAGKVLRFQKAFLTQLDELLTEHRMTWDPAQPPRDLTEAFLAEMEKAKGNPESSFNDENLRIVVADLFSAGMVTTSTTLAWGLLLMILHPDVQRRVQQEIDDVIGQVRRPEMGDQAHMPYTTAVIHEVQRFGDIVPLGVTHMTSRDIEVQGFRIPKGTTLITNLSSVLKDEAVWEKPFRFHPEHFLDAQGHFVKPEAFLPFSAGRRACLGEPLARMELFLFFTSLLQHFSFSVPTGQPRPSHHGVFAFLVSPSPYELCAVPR

[2] = Inhibition of rabbit L-type calcium channel; design: species or system Oryctolagus cuniculus
[3] = Oral bioavailability in rat at 2 mg/kg, po; type: ADME, organism-based; conditions: in vivo
[4] = Plasma clearance in rat at 1 mg/kg, iv or 2 mg/kg, po; type: ADME, organism-based
Dipeptidyl peptidase 2 = Dipeptidyl peptidase 2 (Homo sapiens, UniProt Q9UHL4); test: Inhibition of human recombinant QPP transfected in insect SF9 cells
[5] = Oral bioavailability in rhesus monkey at 2 mg/kg, po; type: ADME, organism-based, Macaca mulatta; conditions: in vivo
Mus musculus [6] = test: Reduction in glucose excursion in C57BL/6N lean mouse at 0.1 mg/kg, po administered as single dose 60 mins before dextrose challenge by oral glucose tolerance test; type: functional; design: scale not given: the % may be the effect or the level left
Mus musculus [7] = test: Reduction in glucose excursion in C57BL/6N lean mouse at 3 mg/kg, po administered as single dose 60 mins before dextrose challenge by oral glucose tolerance test; type: functional; design: scale not given: the % may be the effect or the level left
[8] = Half life in mouse at 1 mg/kg, iv or 2 mg/kg, po; type: ADME, organism-based; conditions: in vivo
Dipeptidyl peptidase 4 = Dipeptidyl peptidase 4 (Mus musculus, UniProt P28843); test: Inhibition of C57BL/6N mouse DPP4
Dipeptidyl peptidase 4, sequence (P28843 whole entry): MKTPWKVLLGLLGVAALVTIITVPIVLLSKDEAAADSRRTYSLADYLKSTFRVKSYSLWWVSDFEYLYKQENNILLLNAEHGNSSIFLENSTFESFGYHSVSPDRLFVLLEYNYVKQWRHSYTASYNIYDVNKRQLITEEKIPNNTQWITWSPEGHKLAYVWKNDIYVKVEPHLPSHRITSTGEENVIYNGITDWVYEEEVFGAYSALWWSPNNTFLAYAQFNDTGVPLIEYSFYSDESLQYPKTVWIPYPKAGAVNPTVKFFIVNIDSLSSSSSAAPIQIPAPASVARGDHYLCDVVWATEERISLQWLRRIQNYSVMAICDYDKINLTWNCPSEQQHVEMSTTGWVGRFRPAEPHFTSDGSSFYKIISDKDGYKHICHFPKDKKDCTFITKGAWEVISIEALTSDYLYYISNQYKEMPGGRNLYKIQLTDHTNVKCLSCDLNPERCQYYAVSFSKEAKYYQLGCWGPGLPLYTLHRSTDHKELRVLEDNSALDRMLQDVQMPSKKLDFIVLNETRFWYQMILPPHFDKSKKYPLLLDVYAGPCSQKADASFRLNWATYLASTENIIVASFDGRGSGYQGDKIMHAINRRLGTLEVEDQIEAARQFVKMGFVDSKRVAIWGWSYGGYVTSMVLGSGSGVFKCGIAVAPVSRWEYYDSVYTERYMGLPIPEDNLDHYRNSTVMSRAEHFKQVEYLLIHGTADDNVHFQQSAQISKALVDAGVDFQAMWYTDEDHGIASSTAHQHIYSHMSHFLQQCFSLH

[9] = Oral bioavailability in dog at 2 mg/kg, po; type: ADME, organism-based, Canis lupus familiaris; conditions: in vivo
[10] = Oral bioavailability in mouse at 2 mg/kg, po; type: ADME, organism-based; conditions: in vivo
[11] = Plasma clearance in dog at 1 mg/kg, iv or 2 mg/kg, po; type: ADME, organism-based, Canis lupus familiaris
[12] = Plasma clearance in rhesus monkey at 1 mg/kg, iv or 2 mg/kg, po; type: ADME, organism-based, Macaca mulatta
[13] = Fraction unbound in mouse plasma; type: ADME, cell-free
[14] = Half life in dog at 1 mg/kg, iv or 2 mg/kg, po; type: ADME, organism-based, Canis lupus familiaris; conditions: in vivo
[15] = Half life in rhesus monkey at 1 mg/kg, iv or 2 mg/kg, po; type: ADME, organism-based, Macaca mulatta; conditions: in vivo
[16] = Plasma concentration in C57BL/6N lean mouse at 1 mg/kg, po administered as single dose 60 mins before dextrose challenge by oral glucose tolerance test; type: ADME, organism-based; design: dose 1 mg/kg, route oral
Mus musculus [17] = test: Inhibition of DPP4 in C57BL/6N lean mouse at 1 mg/kg, po administered as single dose 60 mins before dextrose challenge by oral glucose tolerance test; type: functional
[18] = Plasma clearance in mouse at 1 mg/kg, iv or 2 mg/kg, po; type: ADME, organism-based
[19] = target: Voltage-gated inwardly rectifying potassium channel KCNH2 (Homo sapiens, UniProt Q12809); test: Inhibition of human ERG
Voltage-gated inwardly rectifying potassium channel KCNH2, sequence (Q12809 whole entry): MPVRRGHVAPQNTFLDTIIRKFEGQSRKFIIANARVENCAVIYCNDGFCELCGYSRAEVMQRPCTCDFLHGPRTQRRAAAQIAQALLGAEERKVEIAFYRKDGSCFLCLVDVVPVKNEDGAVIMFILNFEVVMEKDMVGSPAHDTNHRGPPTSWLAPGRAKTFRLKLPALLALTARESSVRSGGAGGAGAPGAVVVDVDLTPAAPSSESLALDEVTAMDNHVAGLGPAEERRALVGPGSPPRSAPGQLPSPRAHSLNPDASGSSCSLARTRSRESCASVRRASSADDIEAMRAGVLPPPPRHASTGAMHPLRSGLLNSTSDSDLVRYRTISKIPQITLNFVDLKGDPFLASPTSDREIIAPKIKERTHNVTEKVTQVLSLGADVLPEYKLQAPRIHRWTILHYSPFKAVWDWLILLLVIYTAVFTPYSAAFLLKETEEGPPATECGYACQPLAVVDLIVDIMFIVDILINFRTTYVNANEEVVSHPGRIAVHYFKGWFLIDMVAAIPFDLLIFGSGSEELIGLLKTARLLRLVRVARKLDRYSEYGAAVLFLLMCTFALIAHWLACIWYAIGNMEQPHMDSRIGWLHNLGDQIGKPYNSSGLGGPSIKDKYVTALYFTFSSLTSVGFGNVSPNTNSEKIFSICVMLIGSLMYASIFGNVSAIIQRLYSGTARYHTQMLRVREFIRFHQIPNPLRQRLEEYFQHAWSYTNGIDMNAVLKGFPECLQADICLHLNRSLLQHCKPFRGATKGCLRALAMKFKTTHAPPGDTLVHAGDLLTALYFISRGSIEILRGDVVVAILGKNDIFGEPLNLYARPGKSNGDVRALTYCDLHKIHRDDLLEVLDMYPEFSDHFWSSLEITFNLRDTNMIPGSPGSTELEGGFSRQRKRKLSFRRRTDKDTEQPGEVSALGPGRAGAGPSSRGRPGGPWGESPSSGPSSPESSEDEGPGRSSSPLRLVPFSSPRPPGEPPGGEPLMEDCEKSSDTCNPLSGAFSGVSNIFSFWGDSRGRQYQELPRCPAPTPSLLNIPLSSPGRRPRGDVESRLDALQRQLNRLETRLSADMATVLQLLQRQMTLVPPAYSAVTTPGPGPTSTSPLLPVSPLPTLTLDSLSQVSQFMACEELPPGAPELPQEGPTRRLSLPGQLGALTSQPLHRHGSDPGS

[20] = Metabolic stability in dog liver microsomes assessed as compound remaining after 60 mins; type: ADME, Canis lupus familiaris, Microsome; conditions: read-out: Stability
[21] = Metabolic stability in rhesus monkey liver microsomes assessed as compound remaining after 60 mins; type: ADME, Macaca mulatta, Microsome; conditions: read-out: Stability
[22] = Metabolic stability in human hepatocytes assessed as compound remaining after 60 mins; type: ADME, cell-based, Hepatocyte; conditions: read-out: Stability
[23] = Metabolic stability in dog hepatocytes assessed as compound remaining after 60 mins; type: ADME, cell-based, Canis lupus familiaris, Hepatocyte; conditions: read-out: Stability
[24] = Metabolic stability in human liver microsomes assessed as compound remaining after 60 mins; type: ADME, Microsome; conditions: read-out: Stability
[25] = Metabolic stability in rat hepatocytes assessed as compound remaining after 60 mins; type: ADME, cell-based, Hepatocyte; conditions: read-out: Stability
[26] = Metabolic stability in rhesus monkey hepatocytes assessed as compound remaining after 60 mins; type: ADME, cell-based, Macaca mulatta, Hepatocyte; conditions: read-out: Stability
[27] = Metabolic stability in rat liver microsomes assessed as compound remaining after 60 mins; type: ADME, Microsome; conditions: read-out: Stability

Dipeptidyl peptidase 9, sequence (Q86TI2 whole entry): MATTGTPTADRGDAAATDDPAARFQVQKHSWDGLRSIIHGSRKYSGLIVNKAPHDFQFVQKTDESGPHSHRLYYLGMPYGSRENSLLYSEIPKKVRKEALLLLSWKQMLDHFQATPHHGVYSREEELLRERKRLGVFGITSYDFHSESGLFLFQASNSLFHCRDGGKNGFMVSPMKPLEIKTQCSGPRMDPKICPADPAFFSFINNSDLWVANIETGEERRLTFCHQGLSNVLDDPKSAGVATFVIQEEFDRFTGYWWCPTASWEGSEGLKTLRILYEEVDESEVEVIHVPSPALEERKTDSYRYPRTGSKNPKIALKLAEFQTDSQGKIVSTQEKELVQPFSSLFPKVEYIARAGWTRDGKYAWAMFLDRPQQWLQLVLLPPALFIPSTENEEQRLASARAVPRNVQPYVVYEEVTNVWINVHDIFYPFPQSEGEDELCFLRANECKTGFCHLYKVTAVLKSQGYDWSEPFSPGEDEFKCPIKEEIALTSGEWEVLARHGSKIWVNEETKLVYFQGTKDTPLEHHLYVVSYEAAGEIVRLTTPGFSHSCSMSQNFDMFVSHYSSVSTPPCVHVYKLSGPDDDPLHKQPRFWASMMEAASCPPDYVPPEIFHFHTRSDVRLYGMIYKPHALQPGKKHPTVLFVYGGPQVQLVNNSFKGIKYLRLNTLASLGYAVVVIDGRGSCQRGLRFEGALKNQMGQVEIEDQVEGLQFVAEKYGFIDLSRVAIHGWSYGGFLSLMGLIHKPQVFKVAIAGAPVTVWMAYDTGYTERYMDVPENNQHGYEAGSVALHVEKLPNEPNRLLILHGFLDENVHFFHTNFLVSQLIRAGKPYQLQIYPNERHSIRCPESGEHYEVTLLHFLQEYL
Dipeptidyl peptidase 8, sequence (Q6V1X1 whole entry): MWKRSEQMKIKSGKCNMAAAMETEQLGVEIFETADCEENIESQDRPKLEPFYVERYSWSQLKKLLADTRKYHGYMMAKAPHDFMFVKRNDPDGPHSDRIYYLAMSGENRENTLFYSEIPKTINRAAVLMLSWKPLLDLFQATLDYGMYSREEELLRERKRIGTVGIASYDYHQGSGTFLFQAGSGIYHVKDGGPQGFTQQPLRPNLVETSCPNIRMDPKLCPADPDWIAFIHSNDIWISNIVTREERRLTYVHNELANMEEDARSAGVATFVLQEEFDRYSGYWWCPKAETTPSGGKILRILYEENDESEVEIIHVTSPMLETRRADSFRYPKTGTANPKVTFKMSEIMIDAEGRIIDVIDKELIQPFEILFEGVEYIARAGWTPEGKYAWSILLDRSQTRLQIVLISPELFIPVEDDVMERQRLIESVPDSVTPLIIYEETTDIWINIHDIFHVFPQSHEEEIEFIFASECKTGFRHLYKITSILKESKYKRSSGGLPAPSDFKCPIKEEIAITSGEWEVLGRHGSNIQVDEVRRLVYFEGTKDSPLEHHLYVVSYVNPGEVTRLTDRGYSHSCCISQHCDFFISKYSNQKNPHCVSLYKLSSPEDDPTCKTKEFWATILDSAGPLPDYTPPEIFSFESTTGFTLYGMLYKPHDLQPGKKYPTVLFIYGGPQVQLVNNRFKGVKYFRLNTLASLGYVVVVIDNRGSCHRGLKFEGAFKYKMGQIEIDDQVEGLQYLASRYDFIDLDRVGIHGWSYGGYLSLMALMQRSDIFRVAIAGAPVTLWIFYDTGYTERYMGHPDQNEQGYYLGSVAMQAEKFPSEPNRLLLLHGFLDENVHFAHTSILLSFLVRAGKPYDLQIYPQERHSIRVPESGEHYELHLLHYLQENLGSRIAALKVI

Row | pIC50 (Dipeptidyl peptidase 8) | pIC50 (Dipeptidyl peptidase 9) | half-life [1] [min] | bioavailability [3] [%] | clearance [4] [mL/min/kg] | Structure (SMILES) | other results
1 | < 4.00 | < 4.00 | – | – | – | N[C@H]1Cn2c(nc3c(F)cccc32)C[C@@H]1c1cc(F)c(F)cc1F | –
2 | – | – | 522 | 110 | 1.4 | N[C@H]1Cn2c(nc3cnc(C(F)(F)F)cc32)C[C@@H]1c1cc(F)c(F)cc1F.O=C(O)C(F)(F)F.O=C(O)C(F)(F)F | pIC50 (Cytochrome P450 2D6): 4.96; pIC50 [2]: 4.02
3 | – | – | – | – | – | N[C@H]1Cn2c(nc3ccncc32)C[C@@H]1c1cc(F)c(F)cc1F | pIC50 (Dipeptidyl peptidase 2): < 4.00
4 | < 4.00 | < 4.00 | – | – | – | CS(=O)(=O)c1ccc2nc3n(c2c1)C[C@H](N)[C@@H](c1cc(F)c(F)cc1F)C3 | pIC50 (Dipeptidyl peptidase 2): < 4.00
5 | < 4.00 | < 4.00 | – | – | – | N[C@H]1Cn2c(nc3ccccc32)C[C@@H]1c1cc(F)c(F)cc1F | –
6 | < 4.00 | – | – | – | – | COc1ccc2c(c1)nc1n2C[C@H](N)[C@@H](c2cc(F)c(F)cc2F)C1 | –
7 | < 4.00 | – | – | – | – | N[C@H]1Cn2c(nc3ccc(C(F)(F)F)cc32)C[C@@H]1c1cc(F)c(F)cc1F | –
8 | < 4.00 | < 4.00 | – | – | – | Cl.N[C@H]1Cn2c(nc3cnccc32)C[C@@H]1c1cc(F)c(F)cc1F | bioavailability [5]: 11%; Activity (Mus musculus [6]): 27%; Activity (Mus musculus [7]): 49%; half-life [8]: 114 min; pIC50 (Dipeptidyl peptidase 4): 7.35; pIC50 (Dipeptidyl peptidase 2): < 4.00; bioavailability [9]: 120%; bioavailability [10]: 73%; pIC50 (Cytochrome P450 2D6): 4.89; pIC50 [2]: < 4.00; clearance [11]: 2.7 mL/min/kg; clearance [12]: 35 mL/min/kg; fraction unbound [13]: 0.55; half-life [14]: 780 min; half-life [15]: 60 min; concentration at 1 h [16]: 691 nM; inhibition in vivo at 1 mg/kg (Mus musculus [17]): 88%; clearance [18]: 36 mL/min/kg
9 | < 4.00 | – | – | – | – | N[C@H]1Cn2c(nc3cc(F)ccc32)C[C@@H]1c1cc(F)c(F)cc1F | –
10 | < 4.00 | < 4.00 | 456 | 55 | 4.8 | N[C@H]1Cn2c(nc3cc(C(F)(F)F)ccc32)C[C@@H]1c1cc(F)c(F)cc1F.O=C(O)C(F)(F)F | –
11 | – | < 4.00 | – | – | – | CC(=O)Nc1ccc2c(c1)nc1n2C[C@H](N)[C@@H](c2cc(F)c(F)cc2F)C1 | –
12 | < 4.00 | – | – | – | – | N[C@H]1Cn2c(nc3c(F)cc(F)cc32)C[C@@H]1c1cc(F)c(F)cc1F | –
13 | < 4.00 | – | 1020 | 87 | 0.5 | N[C@H]1Cn2c(nc3cnc(F)cc32)C[C@@H]1c1cc(F)c(F)cc1F.O=C(O)C(F)(F)F.O=C(O)C(F)(F)F | pIC50 (Cytochrome P450 2D6): 4.92; pIC50 [2]: 5.82; pIC50 [19]: 4.09
14 | < 4.00 | < 4.00 | 204 | 63 | 2.2 | CS(=O)(=O)c1ccc2c(c1)nc1n2C[C@H](N)[C@@H](c2cc(F)c(F)cc2F)C1.O=C(O)C(F)(F)F | pIC50 (Cytochrome P450 2D6): 5.82; pIC50 [2]: < 4.00
15 | < 4.00 | < 4.00 | – | – | – | CCS(=O)(=O)c1ccc2c(c1)nc1n2C[C@H](N)[C@@H](c2cc(F)c(F)cc2F)C1 | pIC50 (Dipeptidyl peptidase 2): < 4.00
16 | < 4.00 | – | 84 | 37 | 25 | N[C@H]1Cn2c(nc3ccc(F)cc32)C[C@@H]1c1cc(F)c(F)cc1F.O=C(O)C(F)(F)F | –
17 | < 4.00 | < 4.00 | – | – | – | CN(C)C(=O)c1ccc2c(c1)nc1n2C[C@H](N)[C@@H](c2cc(F)c(F)cc2F)C1 | –
18 | < 4.00 | < 4.00 | – | – | – | N[C@H]1Cn2c(nc3cccnc32)C[C@@H]1c1cc(F)c(F)cc1F | –
19 | < 4.00 | – | – | – | – | CS(=O)(=O)Nc1ccc2c(c1)nc1n2C[C@H](N)[C@@H](c2cc(F)c(F)cc2F)C1 | pIC50 [19]: 5.60
20 | < 4.00 | < 4.00 | 156 | 140 | 8.7 | N[C@H]1Cn2c(nc3cnccc32)C[C@@H]1c1cc(F)c(F)cc1F.O=C(O)C(F)(F)F.O=C(O)C(F)(F)F | remaining at 1 h [20]: 92%; pIC50 (Dipeptidyl peptidase 2; sf9): < 4.00; remaining at 1 h [21]: 69%; remaining at 1 h [22]: 99%; pIC50 (Cytochrome P450 2D6): 4.89; remaining at 1 h [23]: 99%; remaining at 1 h [24]: 97%; remaining at 1 h [25]: 94%; remaining at 1 h [26]: 35%; remaining at 1 h [27]: 83%
21 | < 4.00 | < 4.00 | 228 | 96 | 3.9 | N[C@H]1Cn2c(nc3ncccc32)C[C@@H]1c1cc(F)c(F)cc1F.O=C(O)C(F)(F)F.O=C(O)C(F)(F)F | pIC50 (Cytochrome P450 2D6): 5.28; pIC50 [2]: < 4.00; pIC50 [19]: 4.05
22 | < 4.00 | – | – | – | – | N[C@H]1Cn2c(nc3c(F)c(F)c(F)cc32)C[C@@H]1c1cc(F)c(F)cc1F | –
23 | < 4.00 | < 4.00 | – | – | – | Cc1ccc2c(c1)nc1n2C[C@H](N)[C@@H](c2cc(F)c(F)cc2F)C1 | –
24 | – | < 4.00 | – | – | – | N[C@H]1Cn2c(nc3ccc(OC(F)(F)F)cc32)C[C@@H]1c1cc(F)c(F)cc1F | –
25 | < 4.00 | < 4.00 | 24 | 24 | 61 | N[C@H]1Cn2c(nc3cc(C(=O)O)ccc32)C[C@@H]1c1cc(F)c(F)cc1F.O=C(O)C(F)(F)F | pIC50 (Dipeptidyl peptidase 2): < 4.00
